Reference: patent publication US6548096B1, “Aspartyl dipeptide ester derivatives and sweeteners” (Ajinomoto Co., Inc., priority 1998, dated 2003)
Where two headings read alike, the source gives them in different places.

Columns and labels:
[1] = Sensory evaluation of sweetening potency relative to sugar; format: in vivo; settings: for sweetening potency: Relative to sweetening potency of a 4% sucrose aqueous solution; for Sweetening potency (relative to sugar): times that of sugar, sensory evaluation
Text: For example, the sweetening potency of N-[N-[3(3-methyl-4-hydroxyphenyl)propyl]-L-α-aspartyl]-L-phenylalanine 1-methyl ester was approximately 35,000 times that of sugar; that of N-[N-[3-(2-hydroxy-4-methylphenyl)propyl]-L-α-aspartyl]-L-α-phenylalanine 1-methyl ester was approximately 30,000 times that of sugar; that of N-[N-[3-(3-hydroxy-4-methoxyphenyl)propyl]-L-α-aspartyl]-L-phenylalanine 1-methyl ester was approximately 20,000 times that of sugar; that of N-[N-[3-(2-hydroxy-4-methoxyphenyl)propyl]-L-α-aspartyl]-L-phenylalanine 1-methyl ester was approximately 20,000 times that of sugar; that of N-[N-[3-(3-hydroxy-4-methylphenyl)propyl]-L-α-aspartyl]-L-phenylalanine 1-methyl ester was approximately 15,000 times that of sugar; that of N-(N-(3-(3-hydroxyphenyl)propyl]-L-α-aspartyl]-L-phenylalanine 1-methyl ester was approximately 8,000 times that of sugar; that of N-[N-(3-(4-methoxyphenyl)propyl]-L-α-aspartyl]-L-phenylalanine 1-methyl ester was approximately 6,500 times that of sugar; and that of N-(N-[3-(3-hydroxy-4-methoxyphenyl)propyl]-L-α-aspartyl]-L-tyrosine 1-methyl ester was approximately 16,000 times that of sugar.
The structures and the results of the sensory evaluation of aspartyl dipeptide derivatives represented by formula (2) are shown in Table 1. [drawing 3]

[2] = as reported in WO 94/11391 (U.S. Pat. No. 5,480,668); cited from earlier work

| SMILES | sweetening potency [1] | Sweetening potency (relative to sugar) [1] | further results |
| --- | --- | --- | --- |
| COC(=O)[C@H](Cc1ccccc1)NC(=O)[C@H](CC(=O)O)NCCCc1ccc(O)c(C)c1 [Compound 16, N-[N-[3-(3-methyl-4-hydroxyphenyl)propyl]-L-α-aspartyl]-L-phenylalanine 1-methyl ester] | 35000 | approximately 35,000 times | Sweetening potency (relative to sugar) ([1]; listed as Example 17): 35,000 times |
| COC(=O)[C@H](Cc1ccccc1)NC(=O)[C@H](CC(=O)O)NCCCc1ccc(C)c(O)c1 |  | approximately 15,000 times |  |
| COC(=O)[C@H](Cc1ccccc1)NC(=O)[C@H](CC(=O)O)NCCCc1ccc(OC)c(O)c1 [Compound 1, N-[N-[3-(3-hydroxy-4-methoxyphenyl)propyl]-L-α-aspartyl]-L-phenylalanine 1-methyl ester] | 20000 |  | Sweetening potency (relative to sugar) ([1]; listed as Example 1): 20,000 times |
| COC(=O)[C@H](Cc1ccccc1)NC(=O)[C@H](CC(=O)O)NCCCc1ccc(C)cc1 [Compound 21, N-[N-[3-(4-Methylphenyl)propyl]-L-α-aspartyl]-L-phenylalanine 1-Methyl Ester] | 4000 | 4,000 times |  |
| CCOc1ccc(CCCN[C@@H](CC(=O)O)C(=O)N[C@@H](Cc2ccccc2)C(=O)OC)cc1 [Compound 6, N-[N-[3-(4-Ethoxyphenyl)propyl]-L-α-aspartyl]-L-phenylalanine 1-Methyl Ester] | 1500 | 1,500 times |  |
| COC(=O)[C@H](Cc1ccccc1)NC(=O)[C@H](CC(=O)O)NCCCc1ccccc1 [N-[N-(3-phenylpropyl)-L-α-aspartyl]-L-phenylalanine-1-methyl ester] |  |  | sweetening potency [2]: 1,500 times that of sugar |
| COC(=O)[C@H](Cc1ccccc1)NC(=O)[C@H](CC(=O)O)NCCCc1ccc(C)cc1O [Compound 13, N-[N-[3-(2-hydroxy-4-methylphenyl)propyl]-L-α-aspartyl]-L-phenylalanine 1-methyl ester] | 30000 |  | Sweetening potency (relative to sugar) ([1]; listed as Example 14): 30,000 times; Sweetening potency (relative to sugar) ([1]; listed as N-[N-[3-(2-hydroxy-4-methylphenyl)propyl]-L-α-aspartyl]-L-α-phenylalanine 1-meth): approximately 30,000 times |
| COC(=O)[C@H](Cc1ccccc1)NC(=O)[C@H](CC(=O)O)NCCCc1ccc(C)c(O)c1 [Compound 17, N-[N-[3-(3-hydroxy-4-methylphenyl)propyl]-L-α-aspartyl]-L-phenylalanine 1-methyl ester] | 15000 |  | Sweetening potency (relative to sugar) ([1]; listed as Example 18): 15,000 times |
| COC(=O)[C@H](Cc1ccccc1)NC(=O)[C@H](CC(=O)O)NCCCc1ccc(OC)cc1 [Compound 5, N-[N-[3-(4-methoxyphenyl)propyl]-L-α-aspartyl]-L-phenylalanine 1-methyl ester] | 6500 |  | Sweetening potency (relative to sugar) ([1]; listed as Example 5): 6,500 times; Sweetening potency (relative to sugar) ([1]; listed as N-[N-(3-(4-methoxyphenyl)propyl]-L-α-aspartyl]-L-phenylalanine 1-methyl ester)): approximately 6,500 times |
| COC(=O)[C@H](Cc1ccccc1)NC(=O)[C@H](CC(=O)O)NCCCc1ccc(OC)cc1OC [Compound 14, N-[N-[3-(2,4-dimethoxyphenyl)propyl]-L-α-aspartyl]-L-phenylalanine 1-methyl ester] | 4000 | 4,000 times |  |
| CCOc1cc(OC)ccc1CCCN[C@@H](CC(=O)O)C(=O)N[C@@H](Cc1ccccc1)C(=O)OC [Compound 15, N-[N-[3-(2-Ethoxy-4-methoxyphenyl)propyl]-L-α-aspartyl]-L-phenylalanine 1-Methyl Ester] | 2500 | 2,500 times |  |
| COC(=O)[C@H](Cc1ccccc1)NC(=O)[C@H](CC(=O)O)NCCCc1ccc(O)cc1 [Compound 4, N-[N-[3-(4-hydroxyphenyl)propyl]-L-α-aspartyl]-L-phenylalanine 1-methyl ester] | 5000 | 5,000 times |  |
| COC(=O)[C@H](Cc1ccccc1)NC(=O)[C@H](CC(=O)O)NCCCc1ccc(O)c(OC)c1 [N-[N-[3-(3-methoxy-4-hydroxyphenyl)propyl]-L-α-aspartyl]-L-phenylalanine 1-methyl ester] |  |  | sweetening potency [2]: 2,500 times that of sugar |
| COC(=O)[C@H](Cc1ccccc1)NC(=O)[C@H](CC(=O)O)NCCCc1ccc2c(c1)OCO2 [Compound 3, N-[N-[3-(3,4-methylenedioxyphenyl)propyl]-L-α-aspartyl]-L-phenylalanine 1-methyl ester] | 5000 | 5,000 times |  |
| COC(=O)[C@H](Cc1ccccc1)NC(=O)[C@H](CC(=O)O)NCCCc1cccc(O)c1 [Compound 7, N-[N-[3-(3-hydroxyphenyl)propyl]-L-α-aspartyl]-L-phenylalanine 1-methyl ester] | 8000 | approximately 8,000 times | Sweetening potency (relative to sugar) ([1]; listed as Example 8): 8,000 times |
| COC(=O)[C@H](Cc1ccccc1)NC(=O)[C@H](CC(=O)O)NCCCc1ccc(OC)cc1O |  | approximately 20,000 times |  |
| COC(=O)[C@H](Cc1ccc(O)cc1)NC(=O)[C@H](CC(=O)O)NCCCc1ccc(OC)c(O)c1 [Compound 9, N-[N-[3-(3-hydroxy-4-methoxyphenyl)propyl]-L-α-aspartyl]-L-tyrosine 1-methyl ester] | 16000 | approximately 16,000 times | Sweetening potency (relative to sugar) ([1]; listed as Example 10): 16,000 times |
| COC(=O)[C@H](Cc1ccccc1)NC(=O)[C@H](CC(=O)O)NCCCc1cc(OC)cc(OC)c1 [Compound 19, N-[N-[3-(3,5-dimethoxyphenyl)propyl]-L-α-aspartyl]-L-phenylalanine 1-methyl ester] | 800 | 800 times |  |
| COC(=O)[C@H](Cc1ccccc1)NC(=O)[C@H](CC(=O)O)NCCCc1ccc(OC)cc1O [Compound 10, N-[N-[3-(2-hydroxy-4-methoxyphenyl)propyl]-L-α-aspartyl]-L-phenylalanine 1-methyl ester] | 20000 |  | Sweetening potency (relative to sugar) ([1]; listed as Example 11): 20,000 times |
| COC(=O)[C@H](Cc1ccccc1)NC(=O)[C@H](CC(=O)O)NCCCc1cccc(OC)c1 [Compound 8, N-[N-[3-(3-Methoxyphenyl)propyl]-L-α-aspartyl]-L-phenylalanine 1-Methyl Ester] | 3500 | 3,500 times |  |
| COC(=O)[C@H](Cc1ccccc1)NC(=O)[C@H](CC(=O)O)NCCC(C)(C)C [N-[N-(3,3-dimethylbutyl)-L-α-aspartyl]-L-phenylalanine 1-methyl ester] |  |  | sweetening potency [2]: 10,000 times that of sugar |
| COC(=O)[C@H](Cc1ccccc1)NC(=O)[C@H](CC(=O)O)NCCCc1ccc(OC)c(O)c1 |  | approximately 20,000 times |  |
| COC(=O)[C@H](Cc1ccccc1)NC(=O)[C@H](CC(=O)O)NCCCc1ccc(OC)c(C)c1 [Compound 18, N-[N-[3-(3-methyl-4-methoxyphenyl)propyl]-L-α-aspartyl]-L-phenylalanine 1-methyl ester] | 8000 | 8,000 times |  |
| COC(=O)[C@H](Cc1ccccc1)NC(=O)[C@H](CC(=O)O)NCCCc1ccc(OC)c(OC)c1 [Compound 2, N-[N-[3-(3,4-dimethoxyphenyl)propyl]-L-α-aspartyl]-L-phenylalanine 1-methyl ester] | 2500 | 2,500 times |  |
| COC(=O)[C@H](Cc1ccccc1)NC(=O)[C@H](CC(=O)O)NCCCc1ccc(OCCO)cc1 [Compound 20, N-[N-[3-(4-(2-Hydroxyethoxy)phenyl)propyl]-L-α-aspartyl]-L-phenylalanine 1-Methyl Ester] | 1000 | 1,000 times |  |
| COC(=O)[C@H](Cc1ccccc1)NC(=O)[C@H](CC(=O)O)NCCCc1cccc(OC)c1O [Compound 11, N-[N-[3-(2-hydroxy-3-methoxyphenyl)propyl]-L-α-aspartyl]-L-phenylalanine 1-methyl ester] | 10000 | 10,000 times |  |
| COC(=O)[C@H](Cc1ccccc1)NC(=O)[C@H](CC(=O)O)NCCCc1cc(OC)ccc1O [Compound 12, N-[N-[3-(2-hydroxy-5-methoxyphenyl)propyl]-L-α-aspartyl]-L-phenylalanine 1-methyl ester] | 1500 | 1,500 times |  |
